Legend:
[1] = tested on: 27-hydroxycholesterol; test: plasma level of 27-hydroxycholesterol in treated subject; assay type: in vivo; conditions: one human subject; IV 500-1,000 mg/kg every 4 weeks as in Example 2; FIGS. 4A-4C
Text: (§1) The increased production of 24S-hydroxycholesterol and 27-hydroxycholesterol enhance cholesterol metabolism, by acting as endogenous ligands for LXR transcription factors responsible for an anti-inflammatory gene signature.

[2] = tested on: cholesterol crystals; test: CCDC of pre-dose blood plasma incubated ex vivo with 2-hydroxypropyl-beta-cyclodextrin; set-up: species or system human; conditions: pre-dose plasma treated ex vivo with 2-hydroxypropyl-beta-cyclodextrin; FIG. 3B
Method: (§2) For each dose, whole blood was collected pre-dose, post-dose (line flush), 1 hour post-dose, and 24 hours post-dose. Plasma was separated from the whole blood and subjected to a cholesterol crystal dissolution capacity (CCDC) assay using techniques similar to those described in the literature. The CCDC assay measures the ability of a sample to dissolve cholesterol crystals.

[3] = tested on: cholesterol crystals; test: cholesterol crystal dissolution capacity (CCDC) assay of plasma from treated subject; assay type: in vivo; conditions: one human subject; single-ascending IV doses 500, 750, 1,000, 1,000 mg/kg every 4 weeks; plasma pre-dose, post-dose, 1 hour and 24 hours post-dose; FIG. 3A
Method: as §2

[4] = tested on: ABCA1; test: ABCA1 mRNA level in treated subject; assay type: in vivo; conditions: one human subject; IV 500-1,000 mg/kg every 4 weeks as in Example 2; FIGS. 5A-5D
[5] = tested on: ABCG1; test: ABCG1 mRNA level in treated subject; assay type: in vivo; conditions: one human subject; IV 500-1,000 mg/kg every 4 weeks as in Example 2; FIGS. 5A-5D
[6] = tested on: total cholesterol; test: total cholesterol level in treated subject; assay type: in vivo; conditions: one human subject; IV 500-1,000 mg/kg every 4 weeks as in Example 2; FIGS. 4A-4C
Text: as §1

[7] = tested on: 24S-hydroxycholesterol; test: plasma level of 24S-hydroxycholesterol in treated subject; assay type: in vivo; conditions: one human subject; IV 500-1,000 mg/kg every 4 weeks as in Example 2; FIGS. 4A-4C
Text: as §1

With 2-hydroxypropyl-beta-cyclodextrin as the substance, how does the “plasma level of 27-hydroxycholesterol” value [1] read?
Its value is “increased plasma levels”.

What about the “capacity of plasma to dissolve cholesterol crystals” value [2] of the same substance?
The value was “increased capacity to dissolve cholesterol crystals”.

And the “capability of blood plasma to dissolve cholesterol crystals (CCDC)” value [3]?
Its value is “increased capability of blood plasma to dissolve cholesterol crystals”.

And the “ABCA1 mRNA levels” value [4]?
The value was “increased mRNA levels”.

What about the “ABCG1 mRNA levels” value [5] of the same substance?
The value was “increased mRNA levels”.

What about the total cholesterol levels [6] of the same substance?
Its total cholesterol levels is “remained stable”.

What about the “plasma level of 24S-hydroxycholesterol” value [7] of the same substance?
Its value is “increased plasma levels”.

Reference: patent US20240000826A1, “METHODS FOR THE TREATMENT OF CARDIOVASCULAR DISEASE WITH CYCLODEXTRINS” (Beren Therapeutics P.B.C., priority 2020, published 2024)
